From patent US20230339900A1, “CASEIN KINASE 1 DELTA MODULATORS” (Janssen Pharmaceutica NV, priority 2020, published 2023)

Legend:
[1] = molecular target: human CSNK1D tagged with nanoluciferase (Homo sapiens (Human), UniProt P48730); assay: Whole Cell nBRET CSNK1D Binding Assay; settings: living CHO cells stably expressing human CSNK1D-nanoluciferase; NanoBret tracer 130 nM; 2 hours 37° C.; read-out: CSNK1D BRET IC50
Protocol: This cellular binding assay uses a bioluminescence resonance energy transfer to measure human CSNK1D binding activity in living Chinese Hamster Ovary (CHO) cells that are stably expressing human CSNK1D tagged with nanoluciferase. The cells were grown to confluency in growth media (DMEM:F12, 50 u/mLPen/Strep, […] glutamine, and 0.6 mg/mL G418) in 10 cm^2 dishes. Cells were seeded onto white, opaque 384-well plates (Corning, cat #3704) at a density of 8,000 cells/well in serum-free OptiMEM and left to incubated overnight at 37° C., […]. The next day, test compounds were added in a dose response to the plate followed by a NanoBret tracer (130 nM). The plate is mixed on an orbital shaker for 30 seconds, then placed in a 37° C. incubator for 2 hours. NanoBret Nano-Glo Substrate solution (20 μL) is added to all wells and incubated for 3 minutes at room temperature. Donor (450 nm) and acceptor (630 nm) emissions are then measured within 10 minutes using a ClarioStar plate reader. The data is used to calculate millibret units, defined as (E630/E450)*1000. Bret emissions are then graphed against the log of compound concentrations and these graphs are used to determine the IC50 of each compound.

[2] = molecular target: human recombinant GST cleaved CSNK1D (Homo sapiens (Human), UniProt P48730); assay: Purified enzyme assay (ADP-Glo Kinase Assay); assay type: biochemical; settings: 2 nM CSNK1D, peptide substrate 150 μM, ATP 20 μM, 45 minutes room temperature
human recombinant GST cleaved CSNK1D, sequence (P48730 whole entry): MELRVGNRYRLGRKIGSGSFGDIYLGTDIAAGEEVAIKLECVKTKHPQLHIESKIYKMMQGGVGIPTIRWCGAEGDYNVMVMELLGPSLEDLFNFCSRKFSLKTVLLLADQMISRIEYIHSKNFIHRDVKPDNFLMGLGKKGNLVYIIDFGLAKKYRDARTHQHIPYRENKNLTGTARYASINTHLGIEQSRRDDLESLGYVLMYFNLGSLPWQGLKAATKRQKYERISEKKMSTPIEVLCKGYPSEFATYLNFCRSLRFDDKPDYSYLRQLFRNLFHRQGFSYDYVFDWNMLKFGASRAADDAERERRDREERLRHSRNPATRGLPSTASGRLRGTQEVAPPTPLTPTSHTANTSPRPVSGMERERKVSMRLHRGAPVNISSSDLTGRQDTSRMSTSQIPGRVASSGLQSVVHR
Protocol: In this assay, CSNK1D phosphorylates a substrate peptide PLSRTL-pS-VASLPGL in the presence of ATP. […] This assay monitors CSNK1D kinase activity by measuring the amount of ADP produced in the assay. A substrate mix is prepared by diluting peptide substrate (final concentration 150 μM) with ATP (final concentration 20 μM) in assay buffer (50 mM Tris/HCl pH 7.4+10 mM MgCl2+1 mM DTT+0.1% BSA). The substrate mix is added to each well of a low volume, 384-well, white opaque plate. Test compounds were diluted in HBSS and added in a dose-response to the plate. To start the reaction, 2 nM of constitutively active human recombinant GST cleaved CSNK1D (University of Dundee, clone DU 19064, stored at 0.28 mg/mL in 50 mM Tris/HCl pH 7.5, 150 mM NaCl, 270 mM Sucrose, 0.1 mM EGTA, 0.1% 2-mercaptoethanol, 0.02% Brij-35.1 mM benzamidine, 0.2 mM PMSF) was added to each well and the plate centrifuged for 5 minutes at 1500 rpm. The total volume of each reaction is 5 ul (2 μL of substrate mix, 1 μL of diluted compounds, and 2 μL of human recombinant CSNK1D). The plates are incubated for 45 minutes at room temperature.
ADP was quantified using the ADP-Glo™ Kinase Assay. ADP-Glo Reagent (5 μL) was added to each well. After a 1 hour incubation at room temperature, Kinase Detection Reagent (10 μL) was added to each well and incubated for 30 minutes. Luminescence was measured on the Perkin Elmer Wallac EnVision 2104 Multi-label Reader. The raw data from the Envision is used to calculate percent activity.

human CSNK1D tagged with nanoluciferase, sequence (P48730 whole entry): as above

Row | SMILES | IC50 [1] | AC50 [2]
1 | Cn1cc(-c2ccnc3[nH]ccc23)c(-c2cccc(F)n2)n1 [Example 29, 4-[3-(6-Fluoro-2-pyridyl)-1-methyl-pyrazol-4-yl]-1H-pyrrolo[2,3-b]pyridine] | 186 nM | 7 nM
2 | Cc1cccc(-c2nn(C)cc2-c2cc(C)nc3[nH]ncc23)n1 [Example 30, 6-Methyl-4-(1-methyl-3-(6-methylpyridin-2-yl)-1H-pyrazol-4-yl)-1H-pyrazolo[3,4-b]pyridine] | 388 nM | 24 nM
3 | Cc1ccc(-c2nn(C)cc2-c2ccnc3[nH]ccc23)nc1 [Example 31, 4-[1-Methyl-3-(5-methyl-2-pyridyl)pyrazol-4-yl]-1H-pyrrolo[2,3-b]pyridine] | 3120 nM | 50 nM
4 | Cc1ccc(-c2nn(C)cc2-c2ccnc3[nH]ncc23)nc1 [Example 32, 4-(1-Methyl-3-(5-methylpyridin-2-yl)-1H-pyrazol-4-yl)-1H-pyrazolo[3,4-b]pyridine] | 8940 nM | 128 nM
5 | Cn1cc(-c2ccnc3[nH]ncc23)c(-c2ccc(C(F)F)cn2)n1 [Example 33, 4-(3-(5-(Difluoromethyl)pyridin-2-yl)-1-methyl-1H-pyrazol-4-yl)-1H-pyrazolo[3,4-b]pyridine] | 17800 nM | 317 nM
6 | COc1cccc(-c2nn(C)cc2-c2cc(C)nc3[nH]ncc23)n1 [Example 34, 4-(3-(6-Methoxypyridin-2-yl)-1-methyl-1H-pyrazol-4-yl)-6-methyl-1H-pyrazolo[3,4-b]pyridine] | 1980 nM | 100 nM
7 | Cn1cc(-c2ccnc3[nH]ccc23)c(-c2ccc(OC(F)F)cn2)n1 [Example 35, 4-[3-[5-(Difluoromethoxy)-2-pyridyl]-1-methyl-pyrazol-4-yl]-1H-pyrrolo[2,3-b]pyridine] | > 10000 nM | 9180 nM
8 | Cn1cc(-c2ccnc3[nH]ccc23)c(-c2ccc(OC(F)(F)F)cn2)n1 [Example 36, 4-[1-Methyl-3-[5-(trifluoromethoxy)-2-pyridyl]pyrazol-4-yl]-1H-pyrrolo[2,3-b]pyridine] | > 10000 nM | 6480 nM
9 | Cn1cc(-c2ccnc3[nH]ccc23)c(-c2ncc(F)cc2F)n1 [Example 37, 4-[3-(3,5-Difluoro-2-pyridyl)-1-methyl-pyrazol-4-yl]-1H-pyrrolo[2,3-b]pyridine] | 78 nM | 15 nM
10 | Cn1cc(-c2ccnc3[nH]ncc23)c(-c2ncc(F)cc2F)n1 [Example 38, 4-(3-(3,5-Difluoropyridin-2-yl)-1-methyl-1H-pyrazol-4-yl)-1H-pyrazolo[3,4-b]pyridine] | 390 nM | 46 nM
11 | Cc1cc(-c2cn(C)nc2-c2ccc(Cl)c(C)n2)c2cn[nH]c2n1 [Example 39, 4-(3-(5-Chloro-6-methylpyridin-2-yl)-1-methyl-1H-pyrazol-4-yl)-6-methyl-1H-pyrazolo[3,4-b]pyridine] | 3250 nM | 128 nM
12 | Cc1cc(-c2cn(C)nc2-c2ccc(F)c(C)n2)c2cn[nH]c2n1 [Example 40, 4-(3-(5-Fluoro-6-methylpyridin-2-yl)-1-methyl-1H-pyrazol-4-yl)-6-methyl-1H-pyrazolo[3,4-b]pyridine] | 288 nM | 19 nM
13 | COc1nc(-c2nn(C)cc2-c2cc(C)nc3[nH]ncc23)ccc1F [Example 41, 4-(3-(5-Fluoro-6-methoxypyridin-2-yl)-1-methyl-1H-pyrazol-4-yl)-6-methyl-1H-pyrazolo[3,4-b]pyridine] | 5000 nM | 107 nM
14 | COc1nc(-c2nn(C)cc2-c2cc(C)nc3[nH]ncc23)ccc1Cl [Example 42, 4-(3-(5-Chloro-6-methoxypyridin-2-yl)-1-methyl-1H-pyrazol-4-yl)-6-methyl-1H-pyrazolo[3,4-b]pyridine] | 2770 nM | 134 nM
15 | Cn1cc(-c2ccnc3[nH]ccc23)c(-c2ncc(F)cn2)n1 [Example 43, 4-[3-(5-Fluoropyrimidin-2-yl)-1-methyl-pyrazol-4-yl]-1H-pyrrolo[2,3-b]pyridine] | 268 nM | 31 nM
16 | Cn1cc(-c2ccnc3[nH]ccc23)c(-c2ccncn2)n1 [Example 44, 4-(1-Methyl-3-pyrimidin-4-yl-pyrazol-4-yl)-1H-pyrrolo[2,3-b]pyridine] | 469 nM | 54 nM
17 | Cn1cc(-c2ccnc3[nH]ccc23)c(-c2cncnc2)n1 [Example 45, 4-(1-Methyl-3-pyrimidin-5-yl-pyrazol-4-yl)-1H-pyrrolo[2,3-b]pyridine] | > 10000 nM | 746 nM
18 | Cn1cc(-c2ccnc3[nH]ccc23)c(-c2cnccn2)n1 [Example 46, 4-(1-Methyl-3-pyrazin-2-yl-pyrazol-4-yl)-1H-pyrrolo[2,3-b]pyridine] | 2190 nM | 84 nM
19 | Cc1cnc(-c2nn(C)cc2-c2ccnc3[nH]ccc23)cn1 [Example 47, 4-[1-Methyl-3-(5-methylpyrazin-2-yl)pyrazol-4-yl]-1H-pyrrolo[2,3-b]pyridine] | > 10000 nM | 346 nM
20 | Cn1cc(-c2ccnc3[nH]ccc23)c(-c2cccnn2)n1 [Example 48, 4-(1-Methyl-3-pyridazin-3-yl-pyrazol-4-yl)-1H-pyrrolo[2,3-b]pyridine] | 3470 nM | 39 nM
21 | Cn1cc(-c2ccnc3[nH]ccc23)c(-c2ccnnc2)n1 [Example 49, 4-(1-Methyl-3-pyridazin-4-yl-pyrazol-4-yl)-1H-pyrrolo[2,3-b]pyridine] | > 10000 nM | 451 nM
22 | Cc1cc(-c2cn(CC3COC3)nc2-c2ccc(F)cn2)c2cn[nH]c2n1 [Example 50, 4-[3-(5-Fluoro-2-pyridyl)-1-(oxetan-3-ylmethyl)pyrazol-4-yl]-6-methyl-1H-pyrazolo[3,4-b]pyridine] | 122 nM | 5 nM
23 | Cc1c(-c2ccnc3[nH]ccc23)c(-c2ccc(F)cn2)nn1C [Example 51, 4-(3-(5-Fluoropyridin-2-yl)-1,5-dimethyl-1H-pyrazol-4-yl)-1H-pyrrolo[2,3-b]pyridine] | 28 nM | 5 nM
24 | Cn1nc(-c2ccc(F)cn2)c(-c2ccnc3[nH]ccc23)c1C1CCC1 [Example 52, 4-(5-Cyclobutyl-3-(5-fluoropyridin-2-yl)-1-methyl-1H-pyrazol-4-yl)-1H-pyrrolo[2,3-b]pyridine] | 227 nM | 13 nM
25 | Cn1cc(-c2ccnc3[nH]ccc23)c(-c2cccnc2)n1 [Example 53, 4-[1-Methyl-3-(3-pyridyl)pyrazol-4-yl]-1H-pyrrolo[2,3-b]pyridine] | 359 nM | 68 nM
26 | CCn1cc(-c2ccnc3[nH]ccc23)c(-c2ccc(F)cn2)n1 [Example 55, 4-[1-Ethyl-3-(5-fluoro-2-pyridyl)pyrazol-4-yl]-1H-pyrrolo[2,3-b]pyridine] | 93 nM | 7 nM
27 | CCn1cc(-c2ccnc3[nH]ncc23)c(-c2ccc(F)cn2)n1 [Example 56, 4-(1-Ethyl-3-(5-fluoropyridin-2-yl)-1H-pyrazol-4-yl)-1H-pyrazolo[3,4-b]pyridine] | 205 nM | 5 nM
28 | CCn1cc(-c2cc(C)nc3[nH]ncc23)c(-c2ccc(F)cn2)n1 [Example 57, 4-(1-Ethyl-3-(5-fluoropyridin-2-yl)-1H-pyrazol-4-yl)-6-methyl-1H-pyrazolo[3,4-b]pyridine] | 219 nM | 14 nM
